Reference: article PMC12736141, “New Quinazolin-4(3H)-one Derivatives as Potential Antitumoral Compounds: Synthesis, In Vitro Cytotoxicity Against the HepG2 Cell Line, and In Silico VEGFR-2 Targeting-Based Studies” (Molecules, 2025)

What was measured:
[1] = tested on: human foreskin fibroblasts (BJ); experiment: MTT cytotoxicity assay on BJ cells; format: cell-based; conditions: 48 h; for cytotoxicity on BJ cell line (in words) / IC50: BJ cells; for IC50: Homo sapiens, MTT
Description: (§1) Compounds 5a–c were dissolved in dimethylsulfoxide (DMSO) at an initial concentration of 10 mM, which was diluted 10 times with the characteristic medium and placed on plates at final concentrations ranging from 12.5 to 150 μM. The cells were seeded on plates of 96 wells at a density of 1 × 10^4 cells per well and incubated for 48 h. The culture medium was removed, and then 100 µL MTT (3-(4,5-dimethylthiazol-2-yl)-2,5-diphenyltetrazolium bromide) was added for 1 h. After that, it was removed, and 150 µL of pure dimethylsulfoxide (DMSO) was added. The samples were read using an ELISA Reader (BioTek, Winooski, VT, USA) at 570 nm. […] All determinations were made in triplicate.
(§2) The half-maximal inhibitory concentration (IC50) values were calculated to evaluate the potency of compounds 5a–c by fitting the investigational data with a 4-parameter logistic curve to obtain the dose-effect curves. The experimental IC50 results are expressed as mean values ± standard deviation (SD) of the three biological replicates.
(§3) Two-way analysis of variance (ANOVA) with a post hoc Bonferroni test was used to statistically examine the relative cell viability (%), compared to the negative control (NC), which was 100%. Data were analyzed using the […] software (GraphPad Prism 8.0.2. Software, La Jolla, CA, USA). In terms of statistical analysis, the results were considered different at values of p < 0.05 or p < 0.001.

[2] = tested on: human hepatocellular carcinoma (HepG2); experiment: MTT cytotoxicity assay on HepG2 cells; format: cell-based; conditions: for IC50: Homo sapiens, HepG2 cells, MTT; for IC50 / Selectivity Index (SI): 48 h; for Selectivity Index (SI): SI = IC50 BJ/IC50 HepG2
Description: as §1, §2, §3
The selectivity index (SI) was used as a parameter to determine how many times more cytotoxic the investigated compounds were by exposing them to normal and cancer cells. It was calculated using the IC50 value ratio between the BJ cell line and the HepG2 cell line, both obtained from ATCC (Manassas, VA, USA). Results that are greater than 2 are considered suitable, as reported in the literature.

[3] = In vitro lipophilicity by RP-TLC; format: physicochemical; conditions: for PC2 / PC1: PCA score on RM values; for PC1: lower value = more lipophilic; for RM / Rf / mRM / RM0 / b / lipophilicity ranking (in words): RP-TLC; for mRM: arithmetic mean of RM values; for RM0: extrapolation of RM to 0% organic modifier; for b: slope of the line RM = f(c); for lipophilicity ranking (in words): within series 5a–c
Description: The chromatographic performance of compounds 5a–c was investigated by reverse-phase thin-layer chromatography (RP-TLC). Standardized Silica gel 60 RP-18 F254S chromatographic plates (20 × 10 cm, Merck, Darmstadt, Germany) were used as the stationary phase, and an i-propanol–water mixture, in volumetric proportions ranging from 40% to 60% (v/v) i-propanol, was used as the mobile phase. The variance between two successive elution mixtures was 5%.
Solutions containing 1 mg/mL of compounds 5a–c were prepared in dimethylsulfoxide (DMSO). A volume equal to 2 μL of each sample was manually applied using chromatographic capillary micropipettes, at a distance of 10 mm from the lower side of the plates and 10 mm from their lateral sides. The gap between two successive spots was 10 mm.
The development process was carried out at room temperature using a chromatographic chamber pre-saturated for 30 min with mobile-phase vapors. The migration distance of the mobile phase was 80 mm for all concentrations used, and it was determined manually by calculating the retention factor Rf; thus, Rf = migration distance of the compound/migration distance of the mobile phase. Rf values were calculated for each tested compound at all five concentrations of the mobile phase.
The spots were visualized under UV light at a wavelength of 254 nm.
Starting from the Rf values determined by RP-TLC, a series of lipophilicity parameters was calculated. Therefore, based on the Bate-Smith and Westall equation, the logarithmic RM values were obtained:RM = log [1/Rf−1](2)
Based on the linear relationship between the RM value and the concentration of the organic solvent in the mobile phase [c], using the linear regression equation and the Soczewinski–Wachtmeister model (where b = slope of the line and c = concentration of organic modifier), the values of another lipophilicity parameter, RM0, were determined by extrapolating the RM values to 0% organic modifier:RM = RM0 + b[c](3)
The arithmetic mean of the lipophilicity parameter RM values, corresponding to a series of concentrations of the organic modifier in the mobile phase, was determined. Therefore, the mRM lipophilicity parameter was obtained.
Applying principal component analysis (PCA, XL-STAT) to the lipophilicity parameter RM, new lipophilicity parameters represented by the principal components (PCs) were obtained.
Starting from the experimentally determined Rf values, the RM logarithmic values were calculated. Consequently, the presence of minor errors in determining the Rf values can generate errors in calculating the RM values. By analyzing the principal components, the errors in estimating the RM0 values are eliminated through extrapolation, thereby providing more precise results.

[4] = In vitro lipophilicity by RP-HPLC; format: physicochemical; conditions: logarithm of the capacity factor
Description: The chromatographic behavior of compounds 5a–c was also examined by high-performance liquid chromatography coupled with mass spectrometry (HPLC-MS). The analyses were conducted using an Agilent 1100 series HPLC system (binary pump, autosampler, thermostat, UV detector, Agilent Technologies, USA) coupled to a Bruker Ion Trap SL system (Bruker Daltonics GmbH). Chromatographic separation was completed using a Zorbax SB-C18 column (50 mm × 2.1 mm i.d., 3.5 μm, Agilent Technologies). The mobile phase consisted of a mixture of water with 0.1% (v/v) acetic acid and acetonitrile. The elution gradient started at 15% acetonitrile and increased to 95% within 5 min. The flow rate was 0.6 mL/min, and the thermostat was set at 45 °C. UV detection was performed at 242 nm. Based on the retention times obtained, the capacity factor k was calculated using formula […], where tR = retention time of the compound and t0 = retention time of the solvent:k = (tR − t0)/t0,(4)
The logarithm of the capacity factor (log k) was used to estimate the lipophilicity of the compounds [71]. The RP-HPLC method has multiple advantages, including low sample requirements, good accuracy of determinations, fast analysis, and high reproducibility.

[5] = Isopropanol–Water 40:60 (v:v %)
[6] = Isopropanol–Water 45:55 (v:v %)
[7] = Isopropanol–Water 50:50 (v:v %)
[8] = Isopropanol–Water 55:45 (v:v %)
[9] = Isopropanol–Water 60:40 (v:v %)

Row | Structure (SMILES) | cytotoxicity on BJ cell line (in words) [1] | IC50 [1] [µM] | IC50 [2] [µM] | PC2 [3] | PC1 [3] | RM [3, 5] | Rf [3, 5] | RM [3, 6] | Rf [3, 6] | RM [3, 7] | Rf [3, 7] | RM [3, 8] | Rf [3, 8] | RM [3, 9] | Rf [3, 9] | mRM [3] | RM0 [3] | b [3] | log k [4] | Selectivity Index (SI) [2] | other results
1 | C=CCn1c(SCC(=O)c2ccc(O)c(C(N)=O)c2)nc2ccccc2c1=O [5a, 5-(2-((3-allyl-4-oxo-3,4-dihydroquinazolin-2-yl)thio)acetyl)-2-hydroxybenzamide] | less cytotoxic or non-cytotoxic | > 100 | > 50 | −0.09 | 0.64 | 0.12 | 0.43 | 0.03 | 0.48 | −0.08 | 0.55 | −0.28 | 0.66 | −0.60 | 0.8 | −0.16 | −0.03 | 1.60 | 0.93 | – | –
2 | NC(=O)c1cc(C(=O)CSc2nc3ccccc3c(=O)n2Cc2ccccc2)ccc1O [5b, 5-(2-((3-benzyl-4-oxo-3,4-dihydroquinazolin-2-yl)thio)acetyl)-2-hydroxybenzamide] | moderate cytotoxicity | 26.6 ± 1.07 | 24.87 ± 0.19 | 0.41 | −2.01 | 0.36 | 0.30 | 0.23 | 0.37 | 0.06 | 0.46 | −0.14 | 0.58 | −0.41 | 0.72 | 0.02 | −0.03 | 1.95 | 0.99 | 1.06 | reduction of viability values ([1]; BJ, concentrations higher than 50 and 100 µM): more than 35%; decrease of cell viability ([1]; BJ, concentrations over 25 µM): more than 50%; lipophilicity ranking (in words) [3]: The most lipophilic compound
3 | CCn1c(SCC(=O)c2ccc(O)c(C(N)=O)c2)nc2ccccc2c1=O [5c, 5-(2-((3-ethyl-4-oxo-3,4-dihydroquinazolin-2-yl)thio)acetyl)-2-hydroxybenzamide] | moderate cytotoxicity | 34.5 ± 1.09 | 25.46 ± 0.2 | −0.31 | 1.37 | 0.05 | 0.47 | −0.01 | 0.51 | −0.14 | 0.58 | −0.32 | 0.68 | −0.62 | 0.81 | −0.21 | −0.03 | 1.46 | 0.91 | 1.35 | relative cell viability result (in words) ([1]; BJ, over 37.5 µM): significantly unfavorable; reduction in cell viability (in words) ([2]; HepG2, 48 h, over 37.5 µM): important reduction in cell viability; lipophilicity ranking (in words) [3]: The least lipophilic compound
4 | CNC(=O)c1cc(Oc2ccc(NC(=O)Nc3ccc(Cl)c(C(F)(F)F)c3)cc2)ccn1 [Sorafenib, reference compound] | – | 5.11 ± 0.16 | 4.87 ± 0.19 | – | – | – | – | – | – | – | – | – | – | – | – | – | – | – | – | – | cell viability level ([2]; HepG2, 48 h, concentrations exceeding 5 µM): below 50%
